Laboratory results taken from patent US6770597B2, “Benzohydrazide derivatives as herbicides and desiccant compositions containing them” (Ishihara Sangyo Kaisha, Ltd., priority 2002, dated 2004).

Experiments:
Format in all cases: in vivo
[1] = system: barnyardgrass (Echinochloa crus-galli, ECHCG); assay: Greenhouse herbicide screen, post-emerge application, phytotoxicity rating; conditions: POST emergent, 14 days after application, scale 0-100
Method in brief: (§1)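 Phytotoxicity read at 14 days on a 0–100 visual scale. Plants were treated either pre-emergence, one day after planting in sandy loam, or post-emergence at about 2–3 leaves, with acetone sprays at 15–1000 g ai/ha.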

[2] = system: cocklebur (Xanthium strumarium, XANST); assay: as above; conditions: POST emergent, 14 days after application, scale 0-100
Method in brief: as §1

[3] = system: common ragweed (Ambrosia artemisiifolia L., AMBEL); assay: as above; conditions: POST emergent, 14 days after application, scale 0-100
Method in brief: as §1

[4] = system: green foxtail (Setaria viridis, SETVI); assay: as above; conditions: POST emergent, 14 days after application, scale 0-100
Method in brief: as §1

[5] = system: ivyleaf morningglory (Ipomoea hederacea, IPOHE); assay: as above; conditions: POST emergent, 14 days after application, scale 0-100
Method in brief: as §1

[6] = system: johnsongrass (Sorghum halepense, SORHA); assay: as above; conditions: POST emergent, 14 days after application, scale 0-100
Method in brief: as §1

[7] = system: lambsquarters (Chenopodium album, CHEAL); assay: as above; conditions: POST emergent, 14 days after application, scale 0-100
Method in brief: as §1

[8] = system: large crabgrass (Digitaria sanguinalis, DIGSA); assay: as above; conditions: POST emergent, 14 days after application, scale 0-100
Method in brief: as §1

[9] = system: redroot pigweed (Amaranthus retrofiexus, AMARE); assay: as above; conditions: POST emergent, 14 days after application
Method in brief: as §1

[10] = system: sicklepod (Cassia obtusifolia, CASOB); assay: as above; conditions: POST emergent, 14 days after application, scale 0-100
Method in brief: as §1

[11] = system: velvetleaf (Abutilon theophrasti, ABUTH); assay: as above; conditions: POST emergent, 14 days after application, scale 0-100
Method in brief: as §1

[12] = system: field corn (Zea mays L., var. Dekalb 535, CORN); assay: Greenhouse herbicide screen, post-emerge application, crop damage rating; conditions: POST emergent, 14 days after application, scale 0-100
Method in brief: as §1

[13] = system: soybean (Glycine max L., var. Pella 86, SOY); assay: as above; conditions: POST emergent, 14 days after application, scale 0-100
Method in brief: as §1

[14] = system: upland rice (Oryza sp., var.Cocodrie, RICE); assay: as above; conditions: POST emergent, 14 days after application, scale 0-100
Method in brief: as §1

[15] = system: wheat (Triticum aestivum L.); assay: as above; conditions: POST emergent, 14 days after application, scale 0-100
Method in brief: as §1

[16] = system: barnyardgrass (Echinochloa crus-galli, ECHCG); assay: Greenhouse herbicide screen, pre-emerge application, phytotoxicity rating; conditions: PRE emergent, 14 days after application, rating scale 0-100
Method in brief: as §1

[17] = system: cocklebur (Xanthium strumarium, XANST); assay: as above; conditions: PRE emergent, 14 days after application, rating scale 0-100
Method in brief: as §1

[18] = system: common ragweed (Ambrosia artemisiifolia L., AMBEL); assay: as above; conditions: PRE emergent, 14 days after application, rating scale 0-100
Method in brief: as §1

[19] = system: green foxtail (Setaria viridis, SETVI); assay: as above; conditions: PRE emergent, 14 days after application, rating scale 0-100
Method in brief: as §1

[20] = system: ivyleaf morningglory (Ipomoea hederacea, IPOHE); assay: as above; conditions: PRE emergent, 14 days after application, rating scale 0-100
Method in brief: as §1

[21] = system: johnsongrass (Sorghum halepense, SORHA); assay: as above; conditions: PRE emergent, 14 days after application, rating scale 0-100
Method in brief: as §1

[22] = system: lambsquarters (Chenopodium album, CHEAL); assay: as above; conditions: PRE emergent, 14 days after application, rating scale 0-100
Method in brief: as §1

[23] = system: large crabgrass (Digitaria sanguinalis, DIGSA); assay: as above; conditions: PRE emergent, 14 days after application, rating scale 0-100
Method in brief: as §1

[24] = system: redroot pigweed (Amaranthus retrofiexus, AMARE); assay: as above; conditions: PRE emergent, 14 days after application, rating scale 0-100
Method in brief: as §1

[25] = system: sicklepod (Cassia obtusifolia, CASOB); assay: as above; conditions: PRE emergent, 14 days after application, rating scale 0-100
Method in brief: as §1

[26] = system: velvetleaf (Abutilon theophrasti, ABUTH); assay: as above; conditions: PRE emergent, 14 days after application, rating scale 0-100
Method in brief: as §1

[27] = system: field corn (Zea mays L., var. Dekalb 535, CORN); assay: Greenhouse herbicide screen, pre-emerge application, crop damage rating; conditions: PRE emergent, 14 days after application, rating scale 0-100
Method in brief: as §1

[28] = system: soybean (Glycine max L., var. Pella 86, SOY); assay: as above; conditions: PRE emergent, 14 days after application, rating scale 0-100
Method in brief: as §1

[29] = system: upland rice (Oryza sp., var.Cocodrie, RICE); assay: as above; conditions: PRE emergent, 14 days after application, rating scale 0-100
Method in brief: as §1

[30] = system: wheat (Triticum aestivum L.); assay: as above; conditions: PRE emergent, 14 days after application, rating scale 0-100
Method in brief: as §1

Compound: Cn1c(C(F)(F)F)cc(=O)n(-c2cc(C(=O)NNC(=O)OC(C)(C)C)c(Cl)cc2F)c1=O [Compound 1-24, 2-chloro-5-(3,6-dihydro-3-methyl-2,6-dioxo-4-(trifluoromethyl)-1(2H)-pyrimidinyl)-4-fluoro-benzoic Acid, 2-(1,1-dimethylethyloxy)carbonyl Hydrazide]
- phytotoxicity rating ECHCO ([1]; 63 g ai/ha): 35
- phytotoxicity rating ECHCO ([1]; 250 g ai/ha): 50
- phytotoxicity rating XANST ([2]; 63 g ai/ha): 100
- phytotoxicity rating XANST ([2]; 250 g ai/ha): 100
- phytotoxicity rating AMBEL ([3]; 63 g ai/ha): 100
- phytotoxicity rating AMBEL ([3]; 250 g ai/ha): 100
- phytotoxicity rating SETVI ([4]; 63 g ai/ha): 35
- phytotoxicity rating SETVI ([4]; 250 g ai/ha): 60
- phytotoxicity rating IPOHE ([5]; 63 g ai/ha): 100
- phytotoxicity rating IPOHE ([5]; 250 g ai/ha): 100
- phytotoxicity rating SORHA ([6]; 63 g ai/ha): 35
- phytotoxicity rating SORHA ([6]; 250 g ai/ha): 55
- phytotoxicity rating CHEAL ([7]; 63 g ai/ha): 100
- phytotoxicity rating CHEAL ([7]; 250 g ai/ha): 100
- phytotoxicity rating DIGSA ([8]; 63 g ai/ha): 20
- phytotoxicity rating DIGSA ([8]; 250 g ai/ha): 35
- phytotoxicity rating AMARE ([9]; 63 g ai/ha, scale 0-100 (0 no damage, 100 complete death)): 100
- phytotoxicity rating AMARE ([9]; 250 g ai/ha, scale 0-100): 100
- phytotoxicity rating CASOB ([10]; 63 g ai/ha): 75
- phytotoxicity rating CASOB ([10]; 250 g ai/ha): 95
- phytotoxicity rating ABUTH ([11]; 63 g ai/ha): 100
- phytotoxicity rating ABUTH ([11]; 250 g ai/ha): 100
- crop damage rating CORN ([12]; 63 g ai/ha): 90
- crop damage rating CORN ([12]; 250 g ai/ha): 95
- crop damage rating SOY ([13]; 63 g ai/ha): 8
- crop damage rating SOY ([13]; 250 g ai/ha): 15
- crop damage rating RICE ([14]; 63 g ai/ha): 60
- crop damage rating RICE ([14]; 250 g ai/ha): 65
- crop damage rating WHEAT ([15]; 63 g ai/ha): 15
- crop damage rating WHEAT ([15]; 250 g ai/ha): 60
- phytotoxicity rating ECHCG ([16]; 63 g ai/ha): 0
- phytotoxicity rating ECHCG ([16]; 250 g ai/ha): 50
- phytotoxicity rating XANST ([17]; 63 g ai/ha): 50
- phytotoxicity rating XANST ([17]; 250 g ai/ha): 90
- phytotoxicity rating AMBEL ([18]; 63 g ai/ha): 50
- phytotoxicity rating AMBEL ([18]; 250 g ai/ha): 75
- phytotoxicity rating SETVI ([19]; 63 g ai/ha): 10
- phytotoxicity rating SETVI ([19]; 250 g ai/ha): 45
- phytotoxicity rating IPOHE ([20]; 63 g ai/ha): 100
- phytotoxicity rating IPOHE ([20]; 250 g ai/ha): 100
- phytotoxicity rating SORHA ([21]; 63 g ai/ha): 0
- phytotoxicity rating SORHA ([21]; 250 g ai/ha): 40
- phytotoxicity rating CHEAL ([22]; 63 g ai/ha): 100
- phytotoxicity rating CHEAL ([22]; 250 g ai/ha): 100
- phytotoxicity rating DIGSA ([23]; 63 g ai/ha): 0
- phytotoxicity rating DIGSA ([23]; 250 g ai/ha): 40
- phytotoxicity rating AMARE ([24]; 63 g ai/ha): 80
- phytotoxicity rating AMARE ([24]; 250 g ai/ha): 99
- phytotoxicity rating CASOB ([25]; 63 g ai/ha): 50
- phytotoxicity rating CASOB ([25]; 250 g ai/ha): 95
- phytotoxicity rating ABUTH ([26]; 63 g ai/ha): 98
- phytotoxicity rating ABUTH ([26]; 250 g ai/ha): 99
- crop damage rating CORN ([27]; 63 g ai/ha): 0
- crop damage rating CORN ([27]; 250 g ai/ha): 100
- crop damage rating SOY ([28]; 63 g ai/ha): 50
- crop damage rating SOY ([28]; 250 g ai/ha): 100
- crop damage rating RICE ([29]; 63 g ai/ha): 5
- crop damage rating RICE ([29]; 250 g ai/ha): 30
- crop damage rating WHEAT ([30]; 63 g ai/ha): 20
- crop damage rating WHEAT ([30]; 250 g ai/ha): 60
